Measured values reported in article PMC10611442, “Amelogenin Peptide-Chitosan Hydrogel for Biomimetic Enamel Regrowth” (Frontiers in dental medicine, 2021).

Experiment: Nanoindentation (hardness and elastic modulus) of remineralized enamel sections
Set-up: species or system human
Details: demineralization 2 h pH 4.6; 7-day mineralization cycle in artificial saliva, daily application, hydrogels 0.2 mg/ml; mean ± SD
Experimental: To enhance the mechanical responses, the remineralization cycle was optimized and extended to 7 days. After demineralization, each tooth setting (comprising 3 or 4 teeth sections) was placed into separate cylindrical containers containing remineralization solution (30 ml, pH 7, RT) for 1 week. Experimental groups included healthy enamel, demineralized enamel, control (900 ppm F^−; 0.2% NaF), P26-CS and P32-CS (n = 3 per group).
Every 24 h after the start of the remineralization cycle, 30 μL of NaF solution (900 ppm F^−; 0.2% NaF) was added on top of each tooth for 10 min per day. The teeth were gently rinsed in distilled water and dried. A fresh 20 μl treatment application (P26-CS and P32-CS) was made to each window, followed by air drying for 15 min at RT and then the samples were returned to the fresh stock of remineralization solution. The remineralization solution and peptide were replaced daily. After 1 week of daily treatment application, the slices were sonicated, rinsed, dried, and stored in distilled water at 4°C for nanoindentation. The hardness and elastic modulus of the peptide-mediated mineralized layers were evaluated by nanoindentation tests. The device was calibrated to examine the mechanical properties of the remineralized HAP layers on teeth slices at the nanoscale. […]

[F-].[Na+] [0.2% NaF, NaF]
elastic modulus of regrown enamel (nanoindentation): 40.57 ± 15.8 GPa | hardness of regrown enamel (nanoindentation): 1.3 ± 0.6 GPa
